Measurements as given in patent publication US8048896B2, “Methods for inhibiting and breaking AGE complex formation” (Cell Viable Corporation, priority 2005, dated 2011).

How the values were obtained:
[1] = system: AGE crosslinks in tail tendon collagen of old diabetic rats; assay: Fluorescence of collagen treated with AGE-breakers after pepsin digestion; assay type: biochemical, rat; conditions: FIG. 3; particularly at 1.0 and 10 mM concentrations
Protocol: (§1) The effects of these compounds on AGE crosslinks that form in vivo in tail tendon collagen of old diabetic rats were determined. Non-diabetic rats served as controls. P values were calculated using unpaired Student's t-test. The extent of AGE crosslinking of tail tendon collagen formed in vivo was assessed by acid insolubility (FIG. 2, * P<0.05 vs. non-diabetic control; ** P<0.05 vs. diabetic control) and fluorescence measurements of collagen treated with AGE-breakers after pepsin (FIG. 3; * P<0.05 vs. diabetic control) or papain digestion (FIG. 4; * P<0.05 vs. non-diabetic control; ** P<0.05 vs. diabetic control). In each of FIGS. 2-4, panel A is LR-20, panel B is LR-23, panel C is LR-99 and panel D is LR-102.

[2] = system: AGE crosslinks in tail tendon collagen of old diabetic rats; assay: Fluorescence of collagen treated with AGE-breakers after papain digestion; assay type: biochemical, rat; conditions: FIG. 4; particularly at 1.0 and 10 mM concentrations
Protocol: as §1

[3] = system: AGE crosslinks in tail tendon collagen of old diabetic rats; assay: Acid solubility of tail tendon collagen treated with AGE-breakers; assay type: biochemical, rat; conditions: FIG. 2; particularly at 1.0 and 10 mM concentrations
Protocol: as §1

[4] = system: AGE-derived protein crosslinks; conditions: in vitro and in vivo; cited from earlier work
[5] = molecular target: AGE formed on glycated bovine serum albumin (Bos taurus, UniProt P02769); assay: AGE-breaking ELISA on ribose-glycated bovine serum albumin; assay type: biochemical; conditions: FIG. 1; various concentrations, 48 hr at 37° C.; ELISA with polyclonal anti-AGE-RNAse antibodies
AGE formed on glycated bovine serum albumin, sequence (P02769 25-607): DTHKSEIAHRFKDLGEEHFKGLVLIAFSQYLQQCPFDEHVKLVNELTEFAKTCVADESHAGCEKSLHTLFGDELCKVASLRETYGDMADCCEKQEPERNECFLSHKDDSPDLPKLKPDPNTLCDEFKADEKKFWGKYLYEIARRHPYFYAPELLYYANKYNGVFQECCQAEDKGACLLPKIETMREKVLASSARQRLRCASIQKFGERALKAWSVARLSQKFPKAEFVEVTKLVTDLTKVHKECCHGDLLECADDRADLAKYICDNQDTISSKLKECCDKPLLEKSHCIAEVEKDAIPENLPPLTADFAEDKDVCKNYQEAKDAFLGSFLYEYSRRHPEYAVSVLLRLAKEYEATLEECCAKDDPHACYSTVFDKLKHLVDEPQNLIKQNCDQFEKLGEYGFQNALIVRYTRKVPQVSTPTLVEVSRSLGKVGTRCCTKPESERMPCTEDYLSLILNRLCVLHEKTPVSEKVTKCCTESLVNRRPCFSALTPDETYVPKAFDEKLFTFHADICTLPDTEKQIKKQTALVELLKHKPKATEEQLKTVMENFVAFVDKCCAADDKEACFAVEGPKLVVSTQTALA
Protocol: Specifically, bovine serum albumin (10 mg/mL) was incubated with 0.5 M ribose in 0.4 M phosphate buffer, pH 7.5, containing 0.02% sodium azide for 24 hr at 37° C., followed by extensive dialysis for 24 hr at 4° C. to remove excess and reversibly bound ribose. AGE formation was then initiated by incubating 0.1 mg/mL (or 1:100 dilution in phosphate buffer) of the glycated protein at 37° C. Then the AGE formed were treated with various concentrations for the compounds for 48 hr at 37° C. Aliquots from each sample were taken and diluted with 0.1 M sodium carbonate buffer to 50 μg/mL. Then 50 μl of the diluted sample was added to wells of a 96-well polystyrene plate (1.0 μg/well) and incubated overnight at room temperature. The plates were washed thrice with PBS-0.05% Tween and blocked for 1 hr with Superblock blocking buffer. The amount of AGE in each treatment was then quantified by ELISA using polyclonal anti-AGE-RNAse antibodies. Percent AGE-breaking was calculated as: (100*(mean OD wells of control-mean OD wells with compound/mean OD wells control).

Row | Compound | fluorescence associated with AGE crosslinks after pepsin digestion [1] | fluorescence associated with AGE crosslinks after papain digestion [2] | collagen solubility in weak acetic acid (acid insolubility) [3] | cleavage of AGE-derived protein crosslinks [4] | Percent AGE-breaking [5]
1 | CC(C)(Oc1ccc(N=Cc2ccc(C=Nc3ccc(OC(C)(C)C(=O)O)cc3)cc2)cc1)C(=O)O [LR-102, 1,4-benzene-bis-(4-methyleneaminophenoxyisobutyric acid)] | reduction of fluorescence | reduction of fluorescence | increased collagen solubility | – | –
2 | O=C(C[n+]1ccsc1)c1ccccc1.[Br-] [N-phenacylthiazolium bromide (PTB), N-phenacylthiazolium bromide] | – | – | – | selectively cleaves AGE-derived protein crosslinks in vitro and in vivo | –
3 | Cc1ncc(CO)c(CN)c1O [pyridoxamine] | – | – | – | – | concentration dependent AGE-breaking properties
4 | CC(C)(Oc1ccc(NC(=O)c2ccc(Cl)cc2)cc1)C(=O)N[C@@H](CSSC[C@H](NC(=O)C(C)(C)Oc1ccc(NC(=O)c2ccc(Cl)cc2)cc1)C(=O)O)C(=O)O [LR-20, L-bis-[4-(4-chlorobenzamidophenoxyisobutyryl)cystine]] | reduction of fluorescence | reduction of fluorescence | increased collagen solubility | – | –
5 | CC(C)(Oc1ccc(NC(=O)Nc2cc(Cl)cc(Cl)c2)cc1)C(=O)Nc1ccc(C(=O)O)cc1 [LR-99, 4-(3,5-dichlorophenylureidophenoxyisobutyryl)-4 amino benzoic acid] | reduction of fluorescence | reduction of fluorescence | increased collagen solubility | – | –
6 | CC(C)(Oc1ccc(NC(=O)Nc2cc(Cl)cc(Cl)c2)cc1)C(=O)NC1(C(=O)O)CCCCC1 [LR-23, 4-(3,5-dichlorophenylureido)phenoxyisobutyryl-1-amidocyclohexane-1-carboxylic acid] | reduction of fluorescence | reduction of fluorescence | increased collagen solubility | – | –
